From patent US20220249415A1, “COMPOSITION OF AZELAIC ACID HAVING ADIPOSE TRIGLYCERIDE HYDROLYSIS EFFECT” (Korea University Research and Business Foundation, priority 2018, published 2022)

Legend:
[1] = system: 3T3-L1 adipocytes; assay: Intracellular triglyceride concentration (TG assay kit) in 3T3-L1 adipocytes; format: cell-based, mouse
Experimental: (§1) In order to confirm whether or not azelaic acid induces triglyceride hydrolysis in adipocytes by activating a cAMP-PKA-HSL signaling pathway, the adipocytes were directly treated with azelaic acid, and concentrations of intracellular lipids were measured. […] Then, a concentration of triglycerides was measured using a TG assay kit (BioVision, California, U.S.) and a concentration of cholesterol was measured using an Amplex Red cholesterol assay kit (Invitrogen, California, U.S.).

[2] = system: HepG2 cells; assay: qPCR of anti-obesity gene in HepG2 cells, with OR2K2 knock-down; format: cell-based, human
Experimental: In-vitro equivalence confirmation: HepG2 cells, which are a human liver tissue cell line, and hAMSC cells, which are a human adipocyte line, were treated with azelaic acid and the anti-obesity gene was measured through a qPCR method.

[3] = system: 3T3-L1 adipocytes; assay: IP-one assay (ELISA) in 3T3-L1 adipocytes; format: cell-based, mouse; conditions: 50 μM azelaic acid, 18 hours
Experimental: Therefore, changes in concentrations of cAMP, IP-one (metabolite of IP3), and calcium, which are second messengers by azelaic acid corresponding to the Olfr544 ligand, in 3T3-L1 adipocytes were measured. Since IP3 has low stability to thereby be easily decomposed to IP-one, an amount of intracellular IP-One (metabolite of IP3) was quantified instead of IP3.
IP-one assay is a method of measuring a concentration of IP3 corresponding to a second messenger formed by phospholipolysis by phospholipase in a GPCR signal transduction process to measure an ability to regulate protein kinase C (PKC) signal transduction. In the present experiment, 1×10^4 3T3-L1 adipocytes were seeded in each well of the 96-well plate and differentiated, and then treated with 50 μM azelaic acid for 18 hours. Then, in order to measure IP3, the concentration of intracellular IP-one (metabolite of IP3, a surrogate marker) of which an error was small was measured using an IP-one ELISA Assay kit (Cisbio, France).

[4] = system: HepG2 cells; assay: Treatment of human liver tissue cell line HepG2 with azelaic acid; format: cell-based; conditions: azelaic acid 50 μM
[5] = target: T1, OR2K2 (Homo sapiens, UniProt Q8NGT1); assay: siRNA knock-down of OR2K2 in hAMSC cells, lipolysis; format: cell-based; conditions: treated with azelaic acid
T1 construct: endogenous in cells; host or cells: HepG2
T1 sequence (Q8NGT1 1-316): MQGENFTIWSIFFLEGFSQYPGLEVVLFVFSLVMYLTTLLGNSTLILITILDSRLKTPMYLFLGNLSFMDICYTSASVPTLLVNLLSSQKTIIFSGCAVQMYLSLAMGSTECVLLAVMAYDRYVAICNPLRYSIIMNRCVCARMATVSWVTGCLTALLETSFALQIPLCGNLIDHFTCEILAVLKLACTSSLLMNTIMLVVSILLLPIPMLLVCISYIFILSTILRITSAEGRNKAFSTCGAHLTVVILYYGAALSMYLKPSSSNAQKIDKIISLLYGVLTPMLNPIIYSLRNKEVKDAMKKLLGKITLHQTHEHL
Text: The gene expression of OR1E1, OR1K1, OR2K2, OR2S2, OR13C5, and OR51E2, corresponding to the top 6 receptors among 10 human olfactory receptors selected to be expressed in both adipose tissue and liver tissue while interacting with azelaic acid, was knocked down with siRNA in human-derived liver cell and adipocyte lines, namely HepG2 cells and hAMSC cells, respectively. Here, siRNAs that were used were OR1E2 siRNA (sc-93932), OR1K2 (sc-92810), OR2K2 (sc-92852), OR2S2 (sc-92505), OR13C5 (sc-92899), and OR51E2 (sc-76265), purchased from Santa Cruz Biotechnology Inc. (Dallas, Tx USA).
After knock-down treatment, the cell lines were treated with azelaic acid, and triglyceride hydrolysis and fatty acid oxidation-related gene expression in HepG2 cells as a human-derived liver cell line and hAMSC cells as a human-derived adipocyte line were measured.

[6] = Dose evaluation experiment, oral administration, body weight control; format: in vivo; conditions: 6 mg/kg of azelaic acid, 6 weeks
Experimental: Azelaic acid was orally administered for 6 weeks, and the body weight control effects of three doses (6, 17, 20 mg/kg) were compared. The commercially available anti-obesity drugs Xenical and Panbesy were used as positive controls. […] Similar results were also obtained when a secondary experiment was performed to confirm the results.

[7] = system: 3T3-L1 adipocytes; assay: Intracellular calcium assay (Fluo-4 Direct) in 3T3-L1 adipocytes; format: cell-based, mouse
Experimental: Therefore, changes in concentrations of cAMP, IP-one (metabolite of IP3), and calcium, which are second messengers by azelaic acid corresponding to the Olfr544 ligand, in 3T3-L1 adipocytes were measured. Since IP3 has low stability to thereby be easily decomposed to IP-one, an amount of intracellular IP-One (metabolite of IP3) was quantified instead of IP3. The concentration of intracellular calcium was measured using a Fluo-4 Direct™ Calcium Assay Kit (Invitrogen, California, U.S.) containing a fluorescent dye for labeling calcium ions. The cultured 3T3-L1 adipocytes were obtained and subjected to centrifugation, and then only pellets were diluted in a Fluo-4 Direct™ calcium assay buffer solution contained in the kit at a concentration of 2.5×10^6 cells/mL. After the resultant was seeded in a 96-well plate and cultured at 37° C. under 5% CO2 conditions for 60 minutes, 50 μL of a 2×Fluo-4 Direct™ calcium reagent loading solution was seeded in the 96-well plate and cultured at 37° C. under 5% CO2 conditions for 30 minutes. Then, fluorescence was measured at excitation and emission wavelengths of 494 nm and 516 nm.

[8] = system: C57BL/6 mice; assay: Subcutaneous injection in high-fat diet fed male C57BL/6 mice; format: in vivo, mouse; conditions: high-fat diet male C57BL/6 mice, 50 mg/kg subcutaneously, 3.5 weeks
Experimental: After 4 weeks of high-fat diet feeding in male C57BL/6 mice (7-8 per group), 50 mg/kg of azelaic acid was administered subcutaneously for 3.5 weeks, and Saxenda, which is used as an anti-obesity drug, was administered as a positive control.

[9] = system: 3T3-L1 adipocytes; assay: Intracellular cholesterol concentration (Amplex Red kit) in 3T3-L1 adipocytes; format: cell-based, mouse; conditions: azelaic acid 25 or 50 μM
Experimental: as §1

- lipolytic effect, knock-down group compared to control group [5]: statistically significantly decreased
SMILES: O=C(O)CCCCCCCC(=O)O [azelaic acid, nonanedioic acid]
- concentration of intracellular triglycerides decreased as compared to a control ([1]; 3T3-L1 adipocytes, 50 μM azelaic acid, 2 hours): 61.5%
- concentration of triglycerides in the 3T3-L1 adipocytes ([1]; azelaic acid 25 or 50 μM): significantly and concentration-dependently decreased
- effect on gene expression when the OR2K2 gene was knocked down ([2]; human liver tissue cell line (HepG2)): disappear
- fatty acid oxidation gene expression (qPCR) ([2]; liver tissue cells (HepG2) treated with azelaic acid): increased
- concentration of IP3 (IP-one) [3]: did not affect
- triglyceride concentration ([4]; HepG2 cells (lipid-loaded)): significantly decreased
- CREB phosphorylation (p-CREB) ([4]; HepG2 cells): increased
- cAMP-PKA signaling pathway ([4]; HepG2 cells): activated
- expression of fatty acid oxidation-related gene PPAR-α ([4]; HepG2 cells): increased
- fatty acid oxidation (FA oxidation) ([4]; HepG2 cells): increased
- body weight [6]: Significant body weight reduction efficacy
- concentration of intracellular calcium [7]: did not affect
- body weight [8]: reduced body weight
- subcutaneous fat [8]: reducing subcutaneous fat
- concentration of intracellular cholesterol [9]: no significant change
